Entries after “also recorded” stand apart in the source; their conditions may differ.
Assays:
MCT PASMCs [1] = assay: BrdU incorporation cell proliferation assay, MCT PASMCs; type: cell-based, rat; settings: FIG. 5 panel B
Method: (§1) PASMCs were isolated from lungs of MCT-treated or control rats using the explant method, as described previously (Lai Y J et al. Am J Respir Crit Care Med. 2008, 178(2):188-96). To culture PASMCs, the PA was dissected from lung and cardiac tissues. The pulmonary arterial tissue was cut into small pieces and suspended in Dulbecco's modified Eagle's medium (DMEM) (Gibco) containing 100 U/mL penicillin, 100 µg/mL streptomycin (Gibco), and 20% fetal bovine serum (FBS) (Gibco). We observed a decrease in desmin, a smooth muscle cell gene marker, at passage 3. Therefore, rat PASMCs were used before passage 3 for all of the in vitro experiments. Characterization of PASMCs was performed by immunocytochemical staining with anti-α-SM-actin (Sigma-Aldrich) and anti-desmin (NeoMakers) antibodies.
(§2) The proliferative activity of PASMCs and the effects of the lumikine were determined by an ELISA-based 5-bromo-2-deoxyuridine (BrdU) incorporation assay kit (Roche Diagnostics Co.) according to the manufacturer's instructions.
(§3) Proliferation of PASMC is critical to the development of PAH. To characterize whether lumikine affected the proliferation of PASMCs in PAH and non-PAH subjects, the PASMCs were isolated from rats with or without MCT induced PAH.

hypoxia-induced PAH mice = assay: Hypoxia-induced PAH mice: RV hypertrophy and pulmonary artery medial wall thickness; type: in vivo; settings: for right ventricular (RV) weight (RV/LV+S ratio): hypoxia (10% O2) mice, 3 ng/kg/day, 28 days, FIG. 6 panel A
Method: Adult male Sprague-Dawley rats (200-250 g in body weight) were randomized assigned into two groups for treatment of 28 days after s.c. injection of saline or 60 mg/kg monocrotaline (MCT) (Sigma-Aldrich) to induce pulmonary hypertension (PH). Rats were examined after 3 weeks of treatment (on day 28). Hypoxic pulmonary vascular remodeling was induced by exposure of mice (8-week-old C57BL/6) to chronic hypoxia (10% 02) in a ventilated chamber, as described previously (Li H H et al. Am J Physiol Lung Cell Mol Physiol. 2017: ajplung 00245 2017). The chronic effects of lumikne were assessed in mice exposed to hypoxia for 28 days. Briefly, animals were kept in hypoxic conditions to develop pulmonary hypertension. […] All animal experimental protocols were reviewed and approved by the Chang Gung University IACUC. This study was carried out in strict accordance with the recommendations in the Guide for the Care and Use of Laboratory Animals of the National Institutes of Health. Housing and maintenance was provided by Chang Gung University, and all animals were fed a standard chow diet with free access to water. After sacrifice, the RV wall was separated from the LV wall and ventricular septum. Wet weight of the RV, free LV wall, and ventricular septum was determined and weighted. RV hypertrophy was expressed as the ratio of weight of the RV wall and that of the free LV wall and ventricular septum (LV+S). Fixation was performed by immersion of the lungs in a 10% paraformaldehyde solution. For paraffin embedding, the entire lungs were dissected in tissue blocks from all lobes. Sectioning at 5 μm was performed from all paraffin-embedded blocks. To assess the type of remodeling of muscular pulmonary arteries, the percentage of MWT was utilized to characterize vascular medial hypertrophy by α-SM-actin staining. Under 400× microscopic examination, MWT was defined as the distance between the internal and external elastic laminae using “ImageJ” software downloaded from the open source available from the internet. […]

MCT PASMCs [2] = assay: pAKT expression in MCT PASMCs; type: cell-based, rat
Method: as §1
Tissue samples or cell samples were homogenized in lysis buffer containing 50 mM Tris-HCl, pH 7.4, 50 mM NaCl, 5 mM EDTA, 1% Triton X-100, 0.05% SDS, 50 mM NaF, 10 mM β-glycerophosphate, sodium pyrophosphate, 100 μM Na3VO4, and protease inhibitor cocktail (Calbiochem, Millipore). […] Blots were visualized using an enhanced chemi-luminescence detection system (Millipore). Samples were normalized to GAPDH (Santa Cruz; 1:10000) and quantified by densitometry.

control (CON) PASMCs = assay: BrdU incorporation cell proliferation assay, control PASMCs; type: cell-based, rat; settings: compared with vehicle treatment, FIG. 5
Method: as §1, §2, §3

human PASMCs = assay: Western blot of protein expression in human PASMCs under in vitro hypoxia; type: cell-based
Method: Human PASMCs were obtained from commercial sources (Lonza). Cells were grown in SMC growth medium (5% FBS, 1 μg/ml hydrocortisone, 10 ng/ml human epidermal growth factor, 3 ng/ml basic fibroblast growth factor, 10 μg/ml heparin, 10 μg/ml gentamycin, and 0.25 μg/ml amphotericin) (Lonza) and were used between passages 4 and 7. Cells were starved in SMC medium with 0.1% FBS for 24 h before the experiment. Human PASMCs were cultured in the TGF-β 2.5 ng/ml condition for 6 hours to determine the effect of lumikine on the protein expressions.
Human PASMCs were cultured in the hypoxic condition for 24 hours to determine the effect of lumikine on the protein expressions. Hypoxia was created in an incubator: 5% CO2+94% N2+[…], 37° C. Lumikine were dissolved in culture medium at a final concentration of 100 nM.
Tissue samples or cell samples were homogenized in lysis buffer containing 50 mM Tris-HCl, pH 7.4, 50 mM NaCl, 5 mM EDTA, 1% Triton X-100, 0.05% SDS, 50 mM NaF, 10 mM β-glycerophosphate, sodium pyrophosphate, 100 μM Na3VO4, and protease inhibitor cocktail (Calbiochem, Millipore). Immunoblotting was performed using anti-lumican (Abcam; 1:2000), ant-HIF-1α(Abeam; 1:1000), anti-p-AKT, or AKT (Cell Signaling; 1:1000), and anti-p-SMAD2 (Cell Signaling; 1:1000), as primary antibodies. Secondary antibodies specific for peroxidase-conjugated anti-mouse IgG (Jackson; 1:10000) or anti-rabbit IgG (Jackson; 1:10000) were used as needed. Blots were visualized using an enhanced chemi-luminescence detection system (Millipore). Samples were normalized to GAPDH (Santa Cruz; 1:10000) and quantified by densitometry.
In this example, in vitro hypoxic (1% oxygen) model was used to evaluate the effect of the present synthetic peptide—lumikine (SEQ ID NO: 2) on pulmonary arterial smooth muscle cell (PASMCs).

Row | Compound | effect on lumikine inhibition of MCT PASMC proliferation (MCT PASMCs [1]; H89 with lumikine (100 nM)) | right ventricular (RV) weight (RV/LV+S ratio) (hypoxia-induced PAH mice) | right ventricular (RV) weight (RV/LV+S ratio) (hypoxia-induced PAH mice; listed as Lumikine) | medial wall thickness (MWT) of the pulmonary artery (hypoxia-induced PAH mice; hypoxia mice, 3 ng/kg/day for 21 days (days 8-28), PAs 25-100 μm, FIG. 6 panel B) | pAKT expression (MCT PASMCs [2]) | proliferation of control PASMCs (control (CON) PASMCs) | serum-induced PASMC proliferation (MCT PASMCs [1]; 10% FBS) | level of lumican (human PASMCs; lumikine 100 nM, hypoxic condition 24 hours, FIG. 4 panel B) | level of HIF-1α (human PASMCs; lumikine 100 nM, hypoxic condition 24 hours, FIG. 4 panel C) | level of pSmad3 (human PASMCs; lumikine 100 nM, hypoxic condition 24 hours, FIG. 4 panel D) | level of pAKT (human PASMCs; lumikine 100 nM, hypoxic condition 24 hours, FIG. 4 panel E) | Smad4 (human PASMCs; lumikine treatment, hypoxic condition, FIG. 4F)
1 | O=S(=O)(NCCNC/C=C/c1ccc(Br)cc1)c1cccc2cnccc12 [H89, reference compound] | reversed |  |  |  |  |  |  |  |  |  |  | 
2 | lumikine: synthetic peptide X1EX2LRVANEVTLN (SEQ ID NO: 1) in which X1 is tyrosine (Y) and X2 is alanine (A) (YEALRVANEVTLN) |  | significantly reduced | reduction | significantly reduction | reduced | no significantly effects; also recorded: did not affect | dose-dependently decrease; also recorded: inhibited significantly | increase | reduction | reduction | reduction | remained unaffected
